Values after ≈ are worked out from the molar mass of the structure shown. Like-named read-outs stand apart in the source and are kept apart here.
Test system: M. abscessus clinical isolate MAB16
Experiment: In vitro susceptibility testing (DST), CLSI broth microdilution
Format: cell-based, M. abscessus subsp. massiliense
Parameters: key to DST profile, interpretation, Day 3 / DST profile, interpretation, Day 5 / DST profile, interpretation, Day 14: S, susceptible; I, intermediate; R, resistant
Conditions: for MIC: Mycobacteroides abscessus
Protocol: Drug susceptibility testing (DST) was performed according to the Clinical and Laboratory Standards Institute (CLSI) guidelines M24-A2 [42] using the broth microdilution method to determine the minimum inhibitory concentration (MIC). […] Colonies were grown at an adjusted cell density to a 0.5 McFarland standard and further diluted to 5×10^5 CFU/ml. […] These were then incubated at 37°C for 3, 5 and 14 days. The MIC was defined as the concentration in which no visible growth was observed. The results were interpreted according to the guidelines of CLSI. Inducible resistance was inferred by changes in MIC values from being susceptible at day 3 to resistant at day 14.

MIC (72 h, day 3, read-out: DST profile, MIC value, Day 3): 0.2 µg/mL (≈ 0.267 µM)
MIC (120 h, day 5, read-out: DST profile, MIC value, Day 5): 2 µg/mL (≈ 2.67 µM)
MIC (336 h, day 14, read-out: DST profile, MIC value, Day 14): 2 µg/mL (≈ 2.67 µM)
Compound: CC[C@H]1OC(=O)[C@H](C)[C@@H](O[C@H]2C[C@@](C)(OC)[C@@H](O)[C@H](C)O2)[C@H](C)[C@@H](O[C@@H]2O[C@H](C)C[C@H](N(C)C)[C@H]2O)[C@](C)(OC)C[C@@H](C)C(=O)[C@H](C)[C@@H](O)[C@]1(C)O [CLA, Clarithromycin]
DST profile, interpretation, Day 3 (day 3, CLSI interpretation): S
DST profile, interpretation, Day 5 (day 5, CLSI interpretation): S
DST profile, interpretation, Day 14 (day 14, CLSI interpretation): S

— article PMC8592419 (PLoS ONE, 2021)
